Source: patent US9193731B2, “Antimicrobial compounds and methods of making and using the same” (Melinta Therapeutics, Inc., priority 2009, dated 2015)

system: Escherichia coli strain ATCC25922; assay: standard microdilution assay to determine minimum inhibitory concentrations (MICs); type: cell-based; settings: Escherichia coli strain ATCC25922, microdilution
Method: Minimum inhibitory concentrations (MICs) are determined by the microdilution method, typically in a final volume of 100 microliters, according to protocols outlined by The Clinical and Laboratory Standards Institute [CLSI; formerly the National Committee for Clinical Laboratory Standards (NCCLS)]. See CLSI: Methods for dilution antimicrobial susceptibility tests for bacteria that grow aerobically; approved standard-fifth edition. Wayne, Pa.: NCCLS; 2000. The assays can be also be performed in microtiter trays according to conventional methodologies as published by the CLSI. See CLSI. Methods for Dilution Antimicrobial Susceptibility Tests for Bacteria That Grow Aerobically; Approved Standard—Seventh Edition. CLSI Document M7-A7 [ISBN 1-56238-587-9] CLSI, 940 West Valley Road, Suite 1400, Wayne Pa. 19087-1898 USA, 2006).
The compounds of the present invention were tested for antimicrobial activity. The compounds were run against Escherichia coli strain ATCC25922 using a standard microdilution assay to determine minimum inhibitory concentrations (MICs). […] A “N/A” means that data is unavailable. It will be recognized by one skilled in the art that the compounds can be assessed against other bacterial organisms and that the presentation of data for activity against Escherichia coli is illustrative and in no way is intended to limit the scope of the present invention. The compounds of the present invention can be assayed against a range of other microorganisms depending upon the performance activity desired to be gathered. Furthermore, the “+”, “−”, and “N/A” representation and the selection of a cutoff value of 16 micrograms/ml is also illustrative and in no way is intended to limit the scope of the present invention.

| Compound | E. coli ATCC25922 MIC |
| --- | --- |
| N=C(N)N[C@@H]1CCCN(Cc2ccc(-n3cc4cc(-c5ccc(S(=O)(=O)N(Cc6ccncc6)C6CCNCC6)cc5)[nH]c4nc3=O)cc2)C1 [Compound 1177] | − (a “−” indicates that the compound has an MIC value greater than 16 micrograms/ml) |
| N=C(N)NCCCN1CC=C(n2cc3cc(-c4ccc(S(=O)(=O)N(CCCN5CCCCC5)C5CCNCC5)cc4)[nH]c3nc2=O)CC1 [Compound 960] | + (a “+” indicates that the compound has an MIC value of 16 micrograms/ml or less) |
| CNCc1ccc(-n2cc3cc(-c4ccc(S(=O)(=O)N(CCCc5ccc(O)cc5)C5CCNCC5)cc4)[nH]c3nc2=O)cc1 [Compound 1064] | − (a “−” indicates that the compound has an MIC value greater than 16 micrograms/ml) |
| N=C(N)NOCCNCc1ccc(-n2cc3cc(-c4ccc(S(=O)(=O)NC5CCNCC5)cc4)[nH]c3nc2=O)cc1 [Compound 1102] | + (a “+” indicates that the compound has an MIC value of 16 micrograms/ml or less) |
| N=C(N)NCCCNCc1ccc(-n2cc3cc(-c4ccc(S(=O)(=O)NC5CCCNC5)cc4)[nH]c3nc2=O)cc1 (centres unmarked) [Compound 805] | + (a “+” indicates that the compound has an MIC value of 16 micrograms/ml or less) |
| NCCCNCc1ccc(-n2cc3cc(-c4ccc(S(=O)(=O)N(CC5CCOCC5)C5CCCNC5)cc4)[nH]c3nc2=O)cc1 (centres unmarked) [Compound 831] | + (a “+” indicates that the compound has an MIC value of 16 micrograms/ml or less) |
| N=C(N)NCCCNCCCn1cc2cc(-c3ccc(S(=O)(=O)NC4CCNCC4)cc3)[nH]c2nc1=O [Compound 1059] | + (a “+” indicates that the compound has an MIC value of 16 micrograms/ml or less) |
| N=C(N)NCCCNCc1ccc(-n2cc3cc(-c4cc(CCCCN)cc(C(F)F)c4)[nH]c3nc2=O)cc1 [Compound 2087a] | + (a “+” indicates that the compound has an MIC value of 16 micrograms/ml or less) |
| N=C(N)NCCCNCc1ccc(-n2cc3cc(-c4ccc(S(=O)(=O)N(CC5COCCO5)C5CCCNC5)cc4)[nH]c3nc2=O)cc1 (centres unmarked) [Compound 851] | + (a “+” indicates that the compound has an MIC value of 16 micrograms/ml or less) |
| NCc1ccc(-n2cc3cc(-c4ccc(S(=O)(=O)N(CC5COc6ccccc6O5)C5CCNCC5)cc4)[nH]c3nc2=O)cc1 (centres unmarked) [Compound 985] | − (a “−” indicates that the compound has an MIC value greater than 16 micrograms/ml) |
| N=C(N)NCCCNCc1ccc(-n2cc3cc(-c4ccc(S(=O)(=O)NC5CNC5)cc4)[nH]c3nc2=O)cc1 [Compound 1122] | + (a “+” indicates that the compound has an MIC value of 16 micrograms/ml or less) |
| N=C(N)NCCCNCc1ccc(-n2cc3cc(-c4ccc(S(=O)(=O)N(Cc5cc(OC(F)(F)F)ccc5F)C5CCNCC5)cc4)[nH]c3nc2=O)cc1 [Compound 767] | + (a “+” indicates that the compound has an MIC value of 16 micrograms/ml or less) |
| N[C@@H]1CCCN(Cc2ccc(-n3cc4cc(-c5ccc(S(=O)(=O)NC6CCNCC6)cc5)[nH]c4nc3=O)cc2)C1 [Compound 1120] | − (a “−” indicates that the compound has an MIC value greater than 16 micrograms/ml) |
| N=C(N)NC1CCN(Cc2ccc(-n3cc4cc(-c5ccc(S(=O)(=O)N(Cc6ccncc6)C6CCNCC6)cc5)[nH]c4nc3=O)cc2)C1 (centres unmarked) [Compound 1178] | + (a “+” indicates that the compound has an MIC value of 16 micrograms/ml or less) |
| Nc1nccc(CCCNCc2ccc(-n3cc4cc(-c5ccc(S(=O)(=O)NC6CCNCC6)cc5)[nH]c4nc3=O)cc2)n1 [Compound 1132] | − (a “−” indicates that the compound has an MIC value greater than 16 micrograms/ml) |
| N=C(N)NCCCNC(c1ccc(-n2cc3cc(-c4cc(CCCCN)cc(OC(F)(F)F)c4)[nH]c3nc2=O)cc1)C(F)(F)F (centres unmarked) [Compound 2081a] | + (a “+” indicates that the compound has an MIC value of 16 micrograms/ml or less) |
| N=C(N)NCCCNCc1ccc(-n2cc3cc(C4CCN(CCCN)C4)[nH]c3nc2=O)cc1 (centres unmarked) [Compound 1448] | + (a “+” indicates that the compound has an MIC value of 16 micrograms/ml or less) |
| N=C(N)NCCCNCc1ccc(-n2cc3cc(CCS(=O)(=O)N(CC4CCOCC4)C4CCNCC4)[nH]c3nc2=O)cc1 [Compound 930] | + (a “+” indicates that the compound has an MIC value of 16 micrograms/ml or less) |
| CC(C)(C)NCC(=O)Nc1ccc(-c2cc3cn(-c4ccc(C(=O)NCCCNC(=N)N)cc4)c(=O)nc3[nH]2)cc1 [Compound 1281] | + (a “+” indicates that the compound has an MIC value of 16 micrograms/ml or less) |
| CC1CN(C(=O)c2ccc(-c3cn4cc(-c5ccc(CNCCCN)cc5)c(=O)nc4[nH]3)cc2)CCN1 (centres unmarked) [Compound 821] | + (a “+” indicates that the compound has an MIC value of 16 micrograms/ml or less) |
| N=C(N)NCCCOCc1ccc(-c2cn3cc(-c4ccc(C(=O)NC5CCNCC5)cc4)[nH]c3nc2=O)cc1 [Compound 928] | + (a “+” indicates that the compound has an MIC value of 16 micrograms/ml or less) |
| N=C(N)NCCCNC(=O)c1ccc(-n2cc3cc(-c4cccc(CCCCN)c4)[nH]c3nc2=O)cc1 [Compound 1433] | + (a “+” indicates that the compound has an MIC value of 16 micrograms/ml or less) |
| N=C(N)NCCCNCc1ccc(-n2cc3cc(-c4cc(OCC(F)CN)cc(N5CCOCC5)c4)[nH]c3nc2=O)cc1 (centres unmarked) [Compound 2013a] | + (a “+” indicates that the compound has an MIC value of 16 micrograms/ml or less) |
| NC(N)=NCCC(=O)NCc1ccc(-n2cc3cc(-c4ccc(S(=O)(=O)N(Cc5ccccc5SC(F)(F)F)C5CCNCC5)cc4)[nH]c3nc2=O)cc1 [Compound 1205] | − (a “−” indicates that the compound has an MIC value greater than 16 micrograms/ml) |
| N=C(N)NCCCNCc1ccc(-n2cc3cc(-c4ccc(S(=O)(=O)N(CCCc5cnc6ncnn6c5)C5CCNCC5)cc4)[nH]c3nc2=O)cc1 [Compound 862] | + (a “+” indicates that the compound has an MIC value of 16 micrograms/ml or less) |

same assay, conditions: Escherichia coli, ATCC25922, Escherichia coli strain ATCC25922, microdilution; read-out: E. coli ATCC25922 MIC

| MIC [µg/mL] | Compound |
| --- | --- |
| > 16 | CO[C@H](CN)COc1cccc(-c2cc3cn(-c4ccc(CN)cc4)c(=O)nc3[nH]2)c1 [Compound 1428] |
| > 16 | NCc1ccc(-n2cc3cc(-c4ccc(S(=O)(=O)NC5CCNCC5)c(Cl)c4)[nH]c3nc2=O)cc1 [Compound 245] |
| < 16 | NCCCNCc1ccc(-c2cn3cc(-c4ccc(C(=O)N5CC6CC5CN6)cc4)[nH]c3nc2=O)cc1 (centres unmarked) [Compound 742] |
| > 16 | N=C(N)NCCCNCc1ccc(-c2cn3nc(-c4ccc(F)cc4)[nH]c3nc2=O)cc1 [Compound 663] |
| < 16 | N=C(N)NCCCNCc1ccc(-n2cc3cc(-c4ccc(C(=O)NC5CCNCC5)cc4)[nH]c3nc2=O)cc1 [Compound 234] |
| > 16 | CN(C)CCCOc1cccc(-c2cc3cn(-c4ccc(CN)cc4)c(=O)nc3[nH]2)c1 [Compound 1113] |
| > 16 | N=C(N)NCCCNCc1ccc(-c2cn3nc(C4CC4)[nH]c3nc2=O)cc1 [Compound 661] |
| > 16 | N=C(N)NCCCNCc1ccc(-c2cn3cc(-c4ccc(C(=O)N5CCN(CCN6CCOCC6)CC5)cc4)[nH]c3nc2=O)cc1 [Compound 684] |
| > 16 | NCc1ccc(-n2cc3cc(-c4cccc(S(=O)(=O)N(CCn5cccc5)C5CCNCC5)c4)[nH]c3nc2=O)cc1 [Compound 1187] |
| > 16 | NCCCNCc1ccc(-n2cc3cc(-c4ccccn4)[nH]c3nc2=O)cc1 [Compound 620] |
| > 16 | N=C(N)NCCCCCn1cc2cc(-c3ccc(S(=O)(=O)NC4CCNCC4)cc3)oc2nc1=O [Compound 912] |
| > 16 | NCc1ccc(-n2cc3cc(-c4cccc(S(=O)(=O)N(CCc5ccc(F)cc5)C5CCNCC5)c4)[nH]c3nc2=O)cc1 [Compound 1160] |
| > 16 | O=C(NC1CCNCC1)c1ccc(-c2cc3cn(-c4ccc(CNCCCCl)cc4)c(=O)nc3[nH]2)cc1F [Compound 254] |
| > 16 | N=C(N)NCCCNCc1ccc(-n2cc3cc(CN4CCS(=O)(=O)CC4)[nH]c3nc2=O)cc1 [Compound 628] |
| > 16 | NCCCNCc1ccc(-n2cc3cc[nH]c3nc2=O)cc1 [Compound 498] |
| > 16 | NCc1ccc(-n2cc3cc(-c4ccccc4OCCCN4CCNCC4)[nH]c3nc2=O)cc1 [Compound 1117] |
| < 16 | N=C(N)NCCCNCc1ccc(-c2cn3cc(-c4ccc(C(=O)N5CCN(CCO)CC5)cc4)[nH]c3nc2=O)cc1 [Compound 713] |
| < 16 | N=C(N)NCCCNCc1ccc(-n2cc3cc(CCS(=O)(=O)C4CCNCC4)[nH]c3nc2=O)cc1 [Compound 1240] |
| < 16 | N=C(N)NCCCNCc1ccc(-n2cc3cc([C@H]4C[C@@H](N)[C@@H](CO)O4)[nH]c3nc2=O)cc1 [Compound 1266] |
| < 16 | N=C(N)NCCCNCc1ccc(-c2cn3cc(-c4ccc(C(=O)NCCCN5CCNCC5)cc4)[nH]c3nc2=O)cc1 [Compound 722] |
| > 16 | CS(=O)(=O)N1CCN(C(=O)c2ccc(-c3cn4cc(-c5ccc(CNCCCNC(=N)N)cc5)c(=O)nc4[nH]3)cc2)CC1 [Compound 716] |
| > 16 | N#CCCCOc1cccc(-c2cc3cn(-c4ccc(CNCCCNC(=N)N)cc4)c(=O)nc3[nH]2)c1 [Compound 1203] |
